Paper PMC4140284, “Human UTY(KDM6C) Is a Male-specific N^ϵ-Methyl Lysyl Demethylase” (The Journal of Biological Chemistry, 2014)
One block for each compound: values may come before it.

Tests used:
KDM6 = assay: Demethylation of histone peptide by 1H NMR, KDM6; type: biochemical, human; conditions: KDM6 catalyzed
Excerpt: The total echo time was 48 ms.

[1] = system: partially phosphorylated UTY(KDM6C); assay: 2OG turnover by 1H NMR, partially phosphorylated UTY(KDM6C); type: biochemical, human; conditions: 10 μM, in 28 min
[2] = system: UTY(KDM6C) dephosphorylated in vitro using λ-phosphatase; assay: 2OG turnover by 1H NMR, dephosphorylated UTY(KDM6C); type: biochemical, human; conditions: UTY(KDM6C) dephosphorylated with λ-phosphatase, 10 μM, in 28 min
UTY(KDM6C) [3] = assay: Demethylation of histone peptides by MALDI-TOF MS, UTY(KDM6C); type: biochemical, human; conditions: UTY(KDM6C) 818–1347, 1 h at 37 °C
Experimental: (§1) Reaction components were premixed in two batches ((i) enzyme, Fe(II), and ascorbate and (ii) 2OG and peptide), and reactions were initiated by mixing the enzyme and substrate mix. Reactions were incubated at 37 °C for the indicated times before being quenched with methanol in a 1:1 ratio.
(§2) Product formation was assessed by MALDI-TOF MS. One microliter of quenched reaction was mixed with 1 μl of α-cyano-4-hydroxycinnamic acid and spotted onto a MALDI-TOF plate for analysis using a MALDI micro-MX mass spectrometer (Waters) in reflectron positive ion mode with pulse voltage 1250 V, detector voltage 2750 V, and mass suppression 1000 Da. Data were analyzed using MassLynx version 4.0. For inhibitor assays, inhibition levels were measured relative to an inhibitor-free reaction.
With catalytically active UTY(KDM6C) in hand, we then investigated whether a longer UTY(KDM6C) construct (residues 818–1347, herein UTY(KDM6C)) can act as a KDM. UTY(KDM6C) was incubated for 1 h at 37 °C with histone peptide fragments corresponding to known mono-, di-, and tri- lysine methylation sites of histone 3 (at Lys^4, Lys^9, Lys^27, and Lys^36) and histone 4 (at Lys^20) (Table 3). Demethylation was assessed by a mass spectrometric (MS) assay with mass shifts of −14 and −28 Da, corresponding to mono- and didemethylation, respectively. […] The predominant product was H3K27Me2, resulting from a single demethylation; a smaller amount of H3K27Me1 was observed as a result of didemethylation (Fig. 3C). Demethylation was dependent on the presence of Fe(II)/2OG.

KDM6A [4] = biological target: T1, KDM6A (Homo sapiens, UniProt O15550); assay: Demethylation of histone peptide by MALDI-TOF MS, KDM6A; type: biochemical; conditions: KDM6A positive control
T1 construct: KDM6B and KDM6A plasmids were used as described previously; made in house; host or cells: Escherichia coli BL21 (DE3)
T1 sequence (O15550 whole entry): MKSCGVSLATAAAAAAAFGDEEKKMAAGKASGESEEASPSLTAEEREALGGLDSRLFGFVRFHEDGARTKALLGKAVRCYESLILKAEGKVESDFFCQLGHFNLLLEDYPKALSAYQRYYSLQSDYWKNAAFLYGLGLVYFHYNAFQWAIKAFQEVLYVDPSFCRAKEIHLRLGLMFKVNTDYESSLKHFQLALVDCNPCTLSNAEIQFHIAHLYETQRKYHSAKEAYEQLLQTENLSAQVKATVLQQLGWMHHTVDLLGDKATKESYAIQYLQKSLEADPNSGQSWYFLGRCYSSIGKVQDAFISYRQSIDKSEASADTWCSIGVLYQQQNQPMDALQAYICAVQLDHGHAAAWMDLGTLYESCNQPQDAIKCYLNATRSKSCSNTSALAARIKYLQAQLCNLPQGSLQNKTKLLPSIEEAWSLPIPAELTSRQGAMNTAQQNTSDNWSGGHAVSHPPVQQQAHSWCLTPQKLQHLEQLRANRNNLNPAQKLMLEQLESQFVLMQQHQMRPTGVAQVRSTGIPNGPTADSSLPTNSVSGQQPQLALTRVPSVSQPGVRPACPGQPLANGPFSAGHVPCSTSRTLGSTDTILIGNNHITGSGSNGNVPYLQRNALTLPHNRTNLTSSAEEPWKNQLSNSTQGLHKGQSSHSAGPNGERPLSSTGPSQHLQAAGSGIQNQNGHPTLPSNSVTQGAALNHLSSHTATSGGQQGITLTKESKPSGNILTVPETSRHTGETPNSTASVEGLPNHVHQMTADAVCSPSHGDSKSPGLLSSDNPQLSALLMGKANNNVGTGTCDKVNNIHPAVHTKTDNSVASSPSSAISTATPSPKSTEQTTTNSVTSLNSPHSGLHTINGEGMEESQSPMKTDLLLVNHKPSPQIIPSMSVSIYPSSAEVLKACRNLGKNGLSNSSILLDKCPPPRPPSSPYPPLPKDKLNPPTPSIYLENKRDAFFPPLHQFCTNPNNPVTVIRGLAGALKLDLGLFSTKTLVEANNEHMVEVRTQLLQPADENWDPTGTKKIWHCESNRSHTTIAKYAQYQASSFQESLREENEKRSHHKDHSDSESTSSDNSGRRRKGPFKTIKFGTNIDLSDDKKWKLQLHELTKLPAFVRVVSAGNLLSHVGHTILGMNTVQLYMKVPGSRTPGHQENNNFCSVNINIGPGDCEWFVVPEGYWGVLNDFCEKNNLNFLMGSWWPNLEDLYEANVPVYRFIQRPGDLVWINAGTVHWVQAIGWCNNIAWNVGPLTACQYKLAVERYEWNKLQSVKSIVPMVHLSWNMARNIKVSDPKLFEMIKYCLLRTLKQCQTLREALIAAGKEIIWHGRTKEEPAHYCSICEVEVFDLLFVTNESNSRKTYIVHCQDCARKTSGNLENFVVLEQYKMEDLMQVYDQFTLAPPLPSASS
Experimental: as §1, §2
(§3) With catalytically active UTY(KDM6C) in hand, we then investigated whether a longer UTY(KDM6C) construct (residues 818–1347, herein UTY(KDM6C)) can act as a KDM. UTY(KDM6C) was incubated for 1 h at 37 °C with histone peptide fragments corresponding to known mono-, di-, and tri- lysine methylation sites of histone 3 (at Lys^4, Lys^9, Lys^27, and Lys^36) and histone 4 (at Lys^20) (Table 3). Demethylation was assessed by a mass spectrometric (MS) assay with mass shifts of −14 and −28 Da, corresponding to mono- and didemethylation, respectively. […]

KDM6B = biological target: T2, KDM6B (Homo sapiens, UniProt O15054); assay: Demethylation of histone peptide by MALDI-TOF MS, KDM6B; type: biochemical; conditions: KDM6B positive control
T2 construct: KDM6B and KDM6A plasmids were used as described previously; made in house; host or cells: Escherichia coli BL21 (DE3)
T2 sequence (O15054 whole entry): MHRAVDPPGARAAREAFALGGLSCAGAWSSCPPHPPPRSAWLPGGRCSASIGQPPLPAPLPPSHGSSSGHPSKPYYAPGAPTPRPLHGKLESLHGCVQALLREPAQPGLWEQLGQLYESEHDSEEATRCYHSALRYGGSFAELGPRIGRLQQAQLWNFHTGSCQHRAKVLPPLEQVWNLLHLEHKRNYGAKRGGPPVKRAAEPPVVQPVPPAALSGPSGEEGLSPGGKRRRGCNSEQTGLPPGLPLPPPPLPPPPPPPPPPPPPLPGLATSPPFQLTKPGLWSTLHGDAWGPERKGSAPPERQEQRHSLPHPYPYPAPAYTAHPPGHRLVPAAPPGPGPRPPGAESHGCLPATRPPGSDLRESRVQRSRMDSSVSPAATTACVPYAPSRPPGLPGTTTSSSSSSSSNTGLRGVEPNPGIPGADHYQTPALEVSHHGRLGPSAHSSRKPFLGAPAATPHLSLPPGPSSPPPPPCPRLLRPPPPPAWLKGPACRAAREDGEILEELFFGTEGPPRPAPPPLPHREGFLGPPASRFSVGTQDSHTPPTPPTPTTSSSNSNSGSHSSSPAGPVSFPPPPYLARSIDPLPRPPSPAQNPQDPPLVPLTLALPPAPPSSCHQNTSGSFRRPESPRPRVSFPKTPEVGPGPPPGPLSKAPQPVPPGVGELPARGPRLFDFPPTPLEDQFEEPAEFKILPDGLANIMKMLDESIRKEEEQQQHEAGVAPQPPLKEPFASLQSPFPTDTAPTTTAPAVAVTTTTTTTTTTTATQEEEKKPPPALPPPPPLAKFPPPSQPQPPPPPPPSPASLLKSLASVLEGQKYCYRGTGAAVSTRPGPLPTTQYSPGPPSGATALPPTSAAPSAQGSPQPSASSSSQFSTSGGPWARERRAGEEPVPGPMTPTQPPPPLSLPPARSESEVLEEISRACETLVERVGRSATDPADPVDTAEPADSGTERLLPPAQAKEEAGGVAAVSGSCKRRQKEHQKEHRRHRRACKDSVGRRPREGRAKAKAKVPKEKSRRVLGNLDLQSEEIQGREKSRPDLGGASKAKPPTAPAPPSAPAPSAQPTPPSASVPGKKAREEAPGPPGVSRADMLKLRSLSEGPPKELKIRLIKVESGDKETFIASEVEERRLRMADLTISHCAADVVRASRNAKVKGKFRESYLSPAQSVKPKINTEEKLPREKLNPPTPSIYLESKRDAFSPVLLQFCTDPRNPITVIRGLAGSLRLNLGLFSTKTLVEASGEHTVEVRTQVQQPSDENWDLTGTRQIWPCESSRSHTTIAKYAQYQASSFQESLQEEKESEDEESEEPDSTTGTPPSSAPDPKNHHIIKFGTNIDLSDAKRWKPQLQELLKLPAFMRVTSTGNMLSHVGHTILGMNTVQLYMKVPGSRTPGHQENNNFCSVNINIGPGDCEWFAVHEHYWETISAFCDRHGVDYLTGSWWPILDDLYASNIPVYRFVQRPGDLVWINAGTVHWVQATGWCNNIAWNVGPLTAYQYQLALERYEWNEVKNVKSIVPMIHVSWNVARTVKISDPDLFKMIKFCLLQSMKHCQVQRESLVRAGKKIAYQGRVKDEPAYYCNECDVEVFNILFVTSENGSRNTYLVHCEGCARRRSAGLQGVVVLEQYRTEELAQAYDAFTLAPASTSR
Experimental: as §1, §2, §3

UTY(KDM6C) [5] = assay: Inhibition of H3K27Me3 peptide demethylation, UTY(KDM6C); type: biochemical, human; conditions: 10 μM inhibitor, 15 min preincubation, 20 min at 37 °C
Experimental: as §1
(§4) For inhibition assays, the same enzyme/Fe(II)/ascorbate mixture was preincubated with 10 μM inhibitor for 15 min before the reaction was initiated by the addition of the peptide substrate solution. Reactions were quenched with 1:1 methanol after 20 min at 37 °C.
as §2

KDM6A [6] = biological target: T1, KDM6A; assay: Inhibition of H3K27Me3 peptide demethylation, KDM6A; type: biochemical; conditions: 10 μM inhibitor, 15 min preincubation, 20 min at 37 °C
Experimental: as §1, §4, §2

[7] = system: H3K27Me3 levels in HeLa cells; assay: Immunofluorescence of global H3K27Me3 levels on overexpression in HeLa cells; type: cell-based; conditions: exogenous overexpression in HeLa cells
Experimental: For cell-based experiments, HEK 293T and HeLa cells were cultured at 37 °C and 5% CO2 in DMEM (Lonza) supplemented with 10% fetal bovine serum (FBS) (Invitrogen) and 1% Glutamax (Invitrogen). For microscopy, HeLa cells were seeded into 96-well clear bottom optical grade plates (BD Biosciences) at 8000 cells/well and allowed to settle overnight. Transfections were carried out the next day. For each well, 0.1 μg of plasmid and 0.25 μl of Lipofectamine 2000 (Invitrogen) were each incubated in 25 μl of Opti-MEM (Invitrogen) for 5 min at room temperature. The two solutions were then mixed gently but thoroughly and incubated for 20 min at room temperature. The mixture was added to the cells in 50 μl of fresh medium. Four hours later, the medium was changed, and the cells were incubated for a further 24 h before fixation. Cells were fixed in 4% (v/v) aqueous formaldehyde for 20 min, permeabilized in 0.5% Triton X-100 in phosphate-buffered saline (PBS) for 8 min, and blocked in 3% (w/v) FBS in PBS for 1 h with a PBS wash between each step. The primary antibodies were then added to the cells in blocking solution. […] Luciferase activity was measured using the Promega Dual-Luciferase Reporter Assay System on a Promega GloMax 20/20 luminometer. Readings were normalized to a Renilla luciferase control that was co-transfected with all samples. […]

Compound: GGKAPRKQLATKAARKMe3SAPATGGV [24-residue histone peptide containing H3K27Me3]
demethylation (KDM6): KDM6 catalyzed demethylation

Compound: O=C(O)CCC(=O)C(=O)O [2OG, 2-oxoglutarate]
succinate produced [1]: 7 ± 0.5 nmol | succinate produced [2]: 7 ± 0.5 nmol

demethylation (KDM6A [4]): demethylation was observed | demethylation (KDM6B): demethylation was observed
Compound: GGKAPRKQLATKAARKMe3SAPATGG [23-residue histone peptide containing H3K27Me3 (histone 3, 12–34)]
demethylation (UTY(KDM6C) [3]): catalyzes the demethylation | minor demethylation product (UTY(KDM6C) [3]; didemethylation, smaller amount): H3K27Me1 | demethylation (UTY(KDM6C) [3]; listed as H3K27Me3 peptide (histone 3, 12–34)): demethylation was observed | predominant demethylation product (UTY(KDM6C) [3]; single demethylation): H3K27Me2

potency rank among nine inhibitors (KDM6A [6]): most potent inhibitor
Compound: O=C(O)CCNc1cc(N2CCc3ccccc3CC2)nc(-c2ccccn2)n1 [GSK-J1]
potency rank among nine inhibitors (UTY(KDM6C) [5]): most potent inhibitor | inhibition of demethylation (UTY(KDM6C) [5]; H3K27Me3 peptide, MALDI MS): inhibition of UTY(KDM6C) activity by GSK-J1 was observed

Compound: FL WT KDM6B: full-length wild type KDM6B, positive control
change in global H3K27Me3 level [7]: a decrease was observed
